Compound: COc1cc2nc(N3CCCN(C)CC3)nc(NC3CCN(Cc4ccccc4)CC3)c2cc1OC + Cc1nc(NC(=O)N2CCC[C@H]2C(N)=O)sc1-c1ccnc(C(C)(C)C(F)(F)F)c1 [Alpelisib] (partner 2 µM)
Test: relative viability (nuclei count vs DMSO), 5 days (fraction); higher = more cells survive
Conditions: first compound 0.2 µM
Method in brief: (§1)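 Lung cancer cell lines in 1536-well plates were dosed by pin tool the day after seeding, either with one drug alone or with a fixed anchor-drug dose plus five library-drug doses (not always all listed) in √10 steps. After 5 days, cells were fixed and their nuclei stained in one step (final 0.05% Triton X-100, 1% formaldehyde, 1 ug/ml Hoechst), then counted on 4× images. Relative viability is the nuclei count in treated wells divided by that in vehicle wells. Values are medians of duplicate plates.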

Cell Line | relative viability
NCI-H727 | 0.633
EBC-1 | 0.82
NCI-H1703 | 0.313
NCI-H1993 | 0.668
SW 1573 | 0.614
NCI-H838 | 1.04
LCLC-103H | 1.04
NCI-H520 | 0.947
NCI-H2126 | 0.83
EMC-BAC-2 | 0.765
NCI-H2085 | 1.06
Calu-6 | 0.884
HCC-366 | 0.519
NCI-H1666 | 0.924
NCI-H596 | 0.616
LK-2 | 1.02
NCI-H2087 | 1.15
SK-MES-1 | 1.08

Cell Line | relative viability
H3255 | 0.632
COR-L23 | 0.799
COR-L 105 | 1.11
IA-LM | 0.688
LOU-NH91 | 0.736
NCI-H2170 | 0.838
NCI-H2405 | 0.784
HOP-62 | 0.878
HCC-44 | 0.832
A549 | 0.694
LU99A | 0.539
BEN | 1.07
HARA | 0.798
HCC-78 | 0.354
NCI-H1299 | 1.03
NCI-H1563 | 0.954
ABC-1 | 0.955

Same assay, conditions: first compound 0.6325 µM

Cell Line | relative viability
NCI-H727 | 0.615
EBC-1 | 0.798
NCI-H1703 | 0.265
NCI-H1993 | 0.637
SW 1573 | 0.696
NCI-H838 | 1.14
LCLC-103H | 0.648
NCI-H520 | 0.98
NCI-H2126 | 0.734
EMC-BAC-2 | 0.69
NCI-H2085 | 0.972
Calu-6 | 0.926
HCC-366 | 0.558
NCI-H1666 | 0.993
NCI-H596 | 0.458
LK-2 | 1.05
NCI-H2087 | 1.2
SK-MES-1 | 0.887

Cell Line | relative viability
H3255 | 0.852
COR-L23 | 0.724
COR-L 105 | 0.86
IA-LM | 0.823
LOU-NH91 | 0.755
NCI-H2170 | 0.805
NCI-H2405 | 0.772
HOP-62 | 0.932
HCC-44 | 0.748
A549 | 0.8
LU99A | 0.458
BEN | 1
HARA | 0.823
HCC-78 | 0.364
NCI-H1299 | 1.08
NCI-H1563 | 0.904
ABC-1 | 0.988

Same assay, conditions: first compound 2 µM

Cell Line | relative viability
NCI-H727 | 0.593
EBC-1 | 0.787
NCI-H1703 | 0.402
NCI-H1993 | 0.692
SW 1573 | 0.729
NCI-H838 | 1.09
LCLC-103H | 0.939
NCI-H520 | 0.867
NCI-H2126 | 0.761
EMC-BAC-2 | 0.784
NCI-H2085 | 1
Calu-6 | 1
HCC-366 | 0.468
NCI-H1666 | 0.951
NCI-H596 | 0.498
LK-2 | 1.26
NCI-H2087 | 1.27
SK-MES-1 | 0.975

Cell Line | relative viability
H3255 | 0.86
COR-L23 | 0.944
COR-L 105 | 1.08
IA-LM | 1.02
LOU-NH91 | 0.588
NCI-H2170 | 0.851
NCI-H2405 | 0.835
HOP-62 | 0.829
HCC-44 | 0.841
A549 | 0.761
LU99A | 0.454
BEN | 1.13
HARA | 0.858
HCC-78 | 0.297
NCI-H1299 | 1.06
NCI-H1563 | 0.834
ABC-1 | 1.18

Same assay, conditions: first compound 6.325 µM

Cell Line | relative viability
NCI-H727 | 0.328
EBC-1 | 0.697
NCI-H1703 | 0.353
NCI-H1993 | 0.662
SW 1573 | 0.724
NCI-H838 | 0.853
LCLC-103H | 0.994
NCI-H520 | 0.452
NCI-H2126 | 0.717
EMC-BAC-2 | 0.77
NCI-H2085 | 0.799
Calu-6 | 0.976
HCC-366 | 0.283
NCI-H1666 | 0.461
NCI-H596 | 0.44
LK-2 | 1.01
NCI-H2087 | 1.05
SK-MES-1 | 0.827

Cell Line | relative viability
H3255 | 0.523
COR-L23 | 0.712
COR-L 105 | 0.732
IA-LM | 1.01
LOU-NH91 | 0.642
NCI-H2170 | 0.835
NCI-H2405 | 0.632
HOP-62 | 0.877
HCC-44 | 0.746
A549 | 0.722
LU99A | 0.479
BEN | 1.06
HARA | 0.87
HCC-78 | 0.251
NCI-H1299 | 1.08
NCI-H1563 | 0.73
ABC-1 | 0.92

Compound: Cc1cc([C@@H](C)Nc2ccccc2C(=O)O)c2nc(N3CCOCC3)cc(=O)n2c1 [AZD6482] + CC(=O)Nc1cccc(-n2c(=O)n(C3CC3)c(=O)c3c(Nc4ccc(I)cc4F)n(C)c(=O)c(C)c32)c1 [Trametinib] (partner 0.02 µM)
Test: as above
Conditions: first compound 0.08 µM
Method in brief: as §1

Cell Line | relative viability
NCI-H2342 | 0.682
NCI-H727 | 0.382
NCI-H1650 | 0.62
NCI-H1993 | 0.506
SW 1573 | 0.466
NCI-H838 | 0.419
LCLC-103H | 0.661
NCI-H520 | 0.567
NCI-H2126 | 0.538
EMC-BAC-2 | 0.841
NCI-H2085 | 0.266
HCC-366 | 0.266
NCI-H1666 | 0.766
NCI-H596 | 0.633
LK-2 | 0.616
NCI-H2087 | 0.176
